US20220088127A1, “TARGETING THE BAG FAMILY FOR THE TREATMENT OF NEURODEGENERATIVE DISEASE” (Temple University - of the Commonwealth System of Higher …, priority 2019, published 2022)
Peptide text beside a SMILES is read from it. * marks the point of attachment. Cbz = O=C(OCc1ccccc1)*

Test system: BAG3
Assay: BAG3 protein level by Western blot
Type: cell-based, rat
Description: Dissociated cell cultures of hippocampal and cortical neurons were prepared using dissected E18 prenatal rat embryonic brains. After digestion in 0.25% trypsin solution, neurons were plated on tissue culture plates and slides pre-coated with poly-D-lysine (Sigma, St. Louis, Mo.) and laminin (Invitrogen 23017, USA). Cells were maintained 14 days prior to treatments. Neurons were transduced with Ad-Null (Vector Biolabs, Malvern, Pa.), Ad-Tat (made in-house), Ad-siBAG3 (Vector Biolabs, Malvern, Pa.) and Ad-BAG3 (Vector Biolabs, Malvern, Pa.) with MOI 1 to 4 or recombinant Tat protein (50 ng/ml, full length, 101 amino acids, Immunodiagnostics, MA). Tat bioactivity was verified by the LTR-luciferase assay. MG132 (5 μM) and Bafilomycin A 1 (50 nM, Sigma) were applied for 4 h prior to lysis to block proteasome and lysosomal autophagy, respectively.
Neuronal and mouse brain tissue lysates were prepared using RIPA lysis buffer (whole cell extract), Tris-Triton (soluble fraction) or 2% SDS in PBS (insoluble fraction), all containing protease inhibitor cocktail (Sigma-Aldrich, St. Louis, Mo.). Protein concentration was measured using Bio-Rad protein assay reagent (Bio-Rad, Hercules, Calif.). SDS-polyacrylamide gels, 10-12%, and nitrocellulose membranes (LI-COR, Inc., Lincoln, Nebr.) were used for electrophoretic protein separation and transfer, respectively. […]

Row | Compound | BAG3 levels in Tat-expressing neurons under lysosomal inhibition (Bafilomycin A1) | BAG3 levels in Tat-expressing neurons under proteasome inhibition (MG132 for 4 h on day 3 post-transduction)
1 | CO/C1=C\C(C)=C\[C@@H](C)[C@@H](O)[C@@H](C)C/C(C)=C/C=C/[C@H](OC)[C@@H]([C@@H](C)[C@@H](O)[C@H](C)[C@@]2(O)C[C@@H](O)[C@H](C)[C@@H](C(C)C)O2)OC1=O [Baf A1, Bafilomycin A1] | no significant changes | 
2 | CC(C)C[C@@H](C=O)NC(=O)[C@H](CC(C)C)NC(=O)[C@H](CC(C)C)NC(=O)OCc1ccccc1 [MG132] (Cbz-Leu-Leu-Leu-aldehyde) |  | not altered
